Assays:
[1] = biological target: geranylgeranyltransferase type-I (Rattus norvegicus, UniProt P53610+Q04631); assay: In vitro inhibition of rat brain cytosol Geranylgeranyl transferase type I
[2] = biological target: Protein farnesyltransferase (Rattus norvegicus, UniProt Q02293+Q04631); assay: In vitro inhibition of rat brain cytosol farnesyl transferase

| SMILES | IC50 [1] [µM] | IC50 [2] [µM] |
| --- | --- | --- |
| O=[N+]([O-])c1c(O)c(F)c(OCc2ccc3ccccc3c2)c(F)c1F | > 200 | 200 |
| CC(C)=CCC/C(C)=C/CC/C(C)=C/COc1c(F)c(O)c([N+](=O)[O-])c(F)c1F | 12.5 | 6.3 |
| O=[N+]([O-])c1c(O)c(F)c(OCc2ccccc2)c(F)c1F | 58 | > 200 |

Results, then the compound that gave them:

| IC50 [1] [µM] | IC50 [2] [µM] | SMILES |
| --- | --- | --- |
| 85 | 120 | C=C(C)C1CC=C(COc2c(F)c(O)c([N+](=O)[O-])c(F)c2F)CC1 (centres undefined) |
| > 200 | > 200 | C=CCOc1c(F)c(O)c([N+](=O)[O-])c(F)c1F |
| > 100 | > 100 | CCCCCCCCCCCCOc1c(F)c(O)c([N+](=O)[O-])c(F)c1F |
| > 200 | 200 | O=[N+]([O-])c1c(O)c(F)c(OCc2ccc(-c3ccccc3)cc2)c(F)c1F |
